The assay relates to peripheral serotonin production. Kind of assay: Pilot study of tryptophan hydroxylase inhibitors on peripheral serotonin production in ovariectomized mice, Example 12. The assay is classed as in vivo. The following applies: pCPA used as control; FIG. 15. How it is done: 6-week old C57Bl/6 inbred female mice, weighing 12-14 g, were used in the experiments. Animals were housed under 12 h light/12 h dark conditions in a room with controlled temperature (22° C.) and humidity (60%). Mice had ad libitum access to food and water, and were used after a minimum of 4 days of acclimatization to the housing conditions. All experiments were conducted following Columbia University Guidelines for the Animal Use and Care of laboratory mice.
Animals were separated into different groups one day prior to the experiments. Mice were ovariectomized (OVX) under anaesthesia (Avertin). Compounds were fed orally (Gavage) twice a day at 1700 h and at 1100 h for the pilot study while for the long term study compounds were given at 1700 h once a day. […] This route creates two potential barriers for the compound to reach the brain. […] Control animals received the same volume of vehicle. Blood was collected through heart puncture on isofluorane-anaesthesized animals, allowed to clot for 5 minutes on ice and then serum was separated, snap chilled in liquid nitrogen and frozen at −80° C. till analyzed. Mice were observed daily for any physical or behavioral abnormality during the course of investigation.
• Group 1: Vehicle • Group 2: Compound 1 • Group 3: Compound 2 • Group 4: Compound 3 • Group 5: Compound 4 (LP-533401) Experiment II: Effect of Compounds 1 and 4 on Protection from OVX-Induced Bone Loss Protocol 1: Gavage Feeding of the Compounds Will be Started 1 Day after OVX for 6 Weeks • Group 1: Sham treatment • Group 2: OVX • Group 3: OVX+Compound 1 (250 mg/kg) • Group 4: OVX+Compound 1 (500 mg/kg) • Group 5: OVX+Compound 4 (250 mg/kg) Protocol 2: Gavage Feeding of the Compounds Will be Started 2 Weeks after OVX for 6 Weeks • Group 1: Sham treatment • Group 2: OVX • Group 3: OVX+Compound 1 (250 mg/kg) • Group 4: OVX+Compound 1 (500 mg/kg) • Group 5: OVX+Compound 4 (250 mg/kg) Protocol 3: Gavage Feeding of the Compounds Will be Started 4 Weeks after OVX for 6 Weeks • Group 1: Sham treatment • Group 2: OVX • Group 3: OVX+Compound 1 (250 mg/kg) • Group 4: OVX+Compound 1 (500 mg/kg) • […] Serotonin Measurement in Serum
The Serotonin ELISA kit obtained from the Fitzgerald company was used to measure derivatized serotonin from serum. Derivatization is part of the sample preparation. Serotonin present in the serum was first quantitatively acylated using the acylation reagent into N-Acylserotonin. The principle of the assay is based on competitive ELISA, wherein serotonin that is bound to the solid phase of the plate and the N-acylserotonin compete for the fixed number of antiserum binding sites. When the reaction is in equilibrium, free antigen and free antigen-antiserum complexes are removed by washing. The antibody bound to the solid phase serotonin is then detected by anti-rabbit/peroxidase. The substrate TMB/Peroxidase reaction is read at 450 nm. The amount of antibody bound to the solid phase serotonin is inversely proportional to the concentration of serotonin in the sample.
We used Catechol-3,6-bis methyleneiminodiacetic acid [(CBMIDA) Compound 1: basic structure is a EDTA-like compound and the catechol ring is at the center)] synthesized at the Columbia University Chemistry division and para-Chlorophenylalanine (pCPA) obtained from Sigma Aldrich Corp. for our experiments. Compounds were dissolved with twice molar solution of NaHCO3 in water and given to mice orally at 250 and 500 mg/kg/dose. Compounds 2 and 3 were dissolved in water.

Consider `NC(Cc1ccc(Cl)cc1)C(=O)O` (stereo not shown) [pCPA, para-chlorophenylalanine], for which the “serotonin levels decreased to % below normal range” value is reported as 60%.

The values above are taken from patent US8759364B2, “Methods of treating bone mass diseases” (The Trustees of Columbia University in the City of New York, priority 2008, dated 2014).
